Values of other authors as cited in patent US20190177430A1, “Methods of Treating Cancers With Chemotherapy With Reduced Toxicity” (The Wistar Institute of Anatomy and Biology, priority 2016, published 2019).

Details: dosages of 250 mg/m^2

Doxorubicin-induced cardiac dysfunction, share of treated patients: 9%
Structure (SMILES): COc1cccc2c1C(=O)c1c(O)c3c(c(O)c1C2=O)C[C@@](O)(C(=O)CO)C[C@@H]3O[C@H]1C[C@H](N)[C@H](O)[C@H](C)O1 [Doxorubicin, (7S,9S)-7-[(2R,4S,5S,6S)-4-amino-5-hydroxy-6-methyloxan-2-yl]oxy-6,9,11-trihydroxy-9-(2-hydroxyacetyl)-4-methoxy-8,10-dihydro-7H-tetracene-5,12-dione]
